Source: patent US20230212121A1 (DAEGU-GYEONGBUK MEDICAL INNOVATION FOUNDATION, priority 2020, published 2023)

Assays:
Format in all cases: cell-based
[1] = target: T1, serotonin transporter (SERT) (Homo sapiens, UniProt P31645); assay: Serotonin reuptake inhibition, [3H]-5-HT, HEK-293 cells transfected with 5-HT transporter cDNA; settings: for Triple reuptake inhibition (Ratio %) SERT: compound 1 μM, [3H]-5-HT, relative to control without compound = 100%, lower value = more inhibition
T1 construct: expressed in transfected cells; host or cells: HEK-293
Procedure, shortened: (§1)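 HEK-293 cells transfected with SERT or NET cDNA were preincubated with compounds in uptake buffer for 15 min at 37 °C, then given [3H]-5-HT or [3H]-NE for 5 min at 37 °C. After ice-cold washes and 1% SDS lysis, retained radioactivity was expressed relative to the untreated control (100%). Screening was at 1 μM; IC50 came from six concentrations (1 nM–1 μM).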

[2] = target: T2, norepinephrine transporter (NET) (Homo sapiens, UniProt P23975); assay: Norepinephrine reuptake inhibition, [3H]-NE, HEK-293 cells transfected with NE transporter cDNA; settings: for Triple reuptake inhibition (Ratio %) NET: compound 1 μM, [3H]-NE, relative to control without compound = 100%, lower value = more inhibition
T2 construct: expressed in transfected cells; host or cells: HEK-293
Procedure, shortened: as §1

[3] = target: T3, dopamine transporter (DAT) (Homo sapiens, UniProt Q01959); assay: Dopamine reuptake inhibition, [3H]-DA, HEK-293 cells transfected with dopamine transporter cDNA; settings: for Triple reuptake inhibition (Ratio %) DAT: compound 1 μM, 20-30 nM [3H]-DA, relative to control without compound = 100%, lower value = more inhibition
T3 construct: expressed in transfected cells; host or cells: HEK-293
Procedure, shortened: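 Transfected cells were preincubated with compound (1 μM screen) for 15 min at 37 °C, then given 20-30 nM tracer for 5 min at 37 °C, washed ice-cold and lysed in 1% SDS for radioactivity counting. Uptake was expressed as % of untreated control, and IC50 came from six concentrations, 1 nM to 1 μM.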

T2 sequence (P23975 whole entry, species assumed): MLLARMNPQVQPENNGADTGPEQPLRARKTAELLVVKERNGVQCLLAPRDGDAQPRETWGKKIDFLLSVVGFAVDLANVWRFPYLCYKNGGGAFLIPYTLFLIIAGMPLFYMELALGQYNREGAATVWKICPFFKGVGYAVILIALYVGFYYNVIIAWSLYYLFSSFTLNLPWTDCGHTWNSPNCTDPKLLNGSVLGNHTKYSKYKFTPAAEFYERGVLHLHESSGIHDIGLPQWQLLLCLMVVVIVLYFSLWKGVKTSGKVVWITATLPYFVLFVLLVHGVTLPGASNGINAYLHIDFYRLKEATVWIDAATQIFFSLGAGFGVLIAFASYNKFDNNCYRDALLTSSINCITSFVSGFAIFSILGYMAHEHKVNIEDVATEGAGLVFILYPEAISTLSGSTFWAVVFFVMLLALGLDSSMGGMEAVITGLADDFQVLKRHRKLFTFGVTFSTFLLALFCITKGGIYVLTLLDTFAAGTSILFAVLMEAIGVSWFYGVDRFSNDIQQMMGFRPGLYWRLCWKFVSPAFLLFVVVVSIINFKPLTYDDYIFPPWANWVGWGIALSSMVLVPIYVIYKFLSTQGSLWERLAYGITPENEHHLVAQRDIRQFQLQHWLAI
T3 sequence (Q01959 whole entry, species assumed): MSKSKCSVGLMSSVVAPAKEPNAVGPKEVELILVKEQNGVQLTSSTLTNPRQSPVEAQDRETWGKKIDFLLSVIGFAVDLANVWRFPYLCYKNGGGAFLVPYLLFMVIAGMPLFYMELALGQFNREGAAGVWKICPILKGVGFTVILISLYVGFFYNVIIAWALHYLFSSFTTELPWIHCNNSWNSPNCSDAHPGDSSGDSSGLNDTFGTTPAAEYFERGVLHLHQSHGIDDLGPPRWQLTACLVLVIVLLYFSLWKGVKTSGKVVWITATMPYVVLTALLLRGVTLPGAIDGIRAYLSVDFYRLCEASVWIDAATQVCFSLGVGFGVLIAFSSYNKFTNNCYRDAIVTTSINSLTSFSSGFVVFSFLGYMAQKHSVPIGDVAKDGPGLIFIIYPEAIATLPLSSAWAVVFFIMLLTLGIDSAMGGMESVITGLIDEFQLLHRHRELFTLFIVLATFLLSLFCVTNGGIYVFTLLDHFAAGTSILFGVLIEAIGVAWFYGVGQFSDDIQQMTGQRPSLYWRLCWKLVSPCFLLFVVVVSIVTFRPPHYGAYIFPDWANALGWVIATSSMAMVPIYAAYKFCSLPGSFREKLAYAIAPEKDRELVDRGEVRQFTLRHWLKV
T1 sequence (P31645 whole entry, species assumed): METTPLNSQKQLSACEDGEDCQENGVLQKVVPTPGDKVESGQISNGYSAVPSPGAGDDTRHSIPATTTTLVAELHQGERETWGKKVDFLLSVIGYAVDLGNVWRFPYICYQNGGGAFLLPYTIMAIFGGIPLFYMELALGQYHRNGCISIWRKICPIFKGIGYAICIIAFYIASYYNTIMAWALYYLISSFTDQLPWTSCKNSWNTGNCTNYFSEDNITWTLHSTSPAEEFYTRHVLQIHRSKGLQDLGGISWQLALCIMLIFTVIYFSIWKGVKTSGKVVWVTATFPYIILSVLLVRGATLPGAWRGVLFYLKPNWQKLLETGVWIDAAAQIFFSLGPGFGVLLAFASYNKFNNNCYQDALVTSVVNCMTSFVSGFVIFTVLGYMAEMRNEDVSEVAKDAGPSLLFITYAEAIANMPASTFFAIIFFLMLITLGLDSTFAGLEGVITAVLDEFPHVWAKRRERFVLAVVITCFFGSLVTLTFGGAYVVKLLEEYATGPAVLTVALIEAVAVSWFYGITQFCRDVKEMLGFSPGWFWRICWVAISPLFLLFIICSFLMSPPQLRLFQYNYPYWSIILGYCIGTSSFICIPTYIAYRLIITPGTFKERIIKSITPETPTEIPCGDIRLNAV

SMILES	Triple reuptake inhibition (Ratio %) SERT [1] [%]	Triple reuptake inhibition (Ratio %) NET [2] [%]	Triple reuptake inhibition (Ratio %) DAT [3] [%]	IC50 ([1]; concentration at which Ratio % is 50%, 6 concentrations 1 nM to 1 μM, read-out: Triple reuptake inhibition (IC50, μM) SERT) [µM]	IC50 ([2]; concentration at which Ratio % is 50%, 6 concentrations 1 nM to 1 μM, read-out: Triple reuptake inhibition (IC50, μM) NET) [µM]	IC50 ([3]; concentration at which Ratio % is 50%, 6 concentrations 1 nM to 1 μM, read-out: Triple reuptake inhibition (IC50, μM) DAT) [µM]
O=S(=O)(NCCN1CCN(c2ccc(Cl)cc2)CC1)c1ccc2ccccc2c1 [Example 50, N-(2-(4-(4-chlorophenyl)piperazinyl)ethyl)naphthalen-2-sulfonamide]	45.16	87.27	86.50			
O=S(=O)(NCCN1CCN(c2ccc(Cl)cc2)CC1)c1ccc(-c2ccccc2)cc1 [Example 52, N-(2-(4-(4-chlorophenyl)piperazin-1-yl)ethyl)-[1,1′-biphenyl]-4-sulfonamide]	47.19	64.45	68.53			
O=S(=O)(NCCCN1CCC(Cc2ccccc2)CC1)c1ccc2ccccc2n1 [Example 57, N-(3-(4-benzylpiperidin-1-yl)propyl)quinolin-2-sulfonamide]	53.66	30.54	13.09	0.345	1.35	4.48
CCCCOc1ccc(S(=O)(=O)NCCCN2CCC(Cc3ccc(Cl)cc3)CC2)cc1 [Example 28, 4-butoxy-N-(3-(4-(4-chlorobenzyl)piperidin-1-yl)propyl)benzenesulfonamide]	26.63	64.36	94.53			
